The target in the first experiment is T1, Carbonic anhydrase (Stylophora pistillata, UniProt C0IX24).
T1 sequence (C0IX24 whole entry): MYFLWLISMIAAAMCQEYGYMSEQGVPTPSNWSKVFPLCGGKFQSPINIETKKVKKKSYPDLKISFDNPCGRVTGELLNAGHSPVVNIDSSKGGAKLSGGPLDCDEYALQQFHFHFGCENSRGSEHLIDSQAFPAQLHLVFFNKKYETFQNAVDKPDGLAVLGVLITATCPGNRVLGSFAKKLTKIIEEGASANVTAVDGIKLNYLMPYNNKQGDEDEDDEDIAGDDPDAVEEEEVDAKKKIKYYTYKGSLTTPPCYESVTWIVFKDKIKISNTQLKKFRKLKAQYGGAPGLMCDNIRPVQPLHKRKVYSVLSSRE
Carbonic anhydrase 6, sequence (P23280 whole entry): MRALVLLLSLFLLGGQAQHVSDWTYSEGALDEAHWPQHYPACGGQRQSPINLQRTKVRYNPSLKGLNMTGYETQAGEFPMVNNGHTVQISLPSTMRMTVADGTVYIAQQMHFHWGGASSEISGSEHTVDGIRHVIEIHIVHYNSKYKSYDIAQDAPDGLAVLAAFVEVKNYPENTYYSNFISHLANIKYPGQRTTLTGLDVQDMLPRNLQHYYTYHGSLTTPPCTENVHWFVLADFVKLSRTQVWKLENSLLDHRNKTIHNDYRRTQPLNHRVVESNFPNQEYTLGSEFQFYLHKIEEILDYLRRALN
With `Br` [BROMIDE], the Ki was determined as 960 µM.
As for `Nc1ccc(S(=O)(=O)NCCc2ccc(S(N)(=O)=O)cc2)cc1`, the Ki came out at 0.902 µM. Against the preceding molecule, the Ki is about 1100-fold lower.
`OB(O)c1ccccc1` [PHENYLBORONIC ACID] returned a Ki of 8.1e-06 µM.
`O=[N+]([O-])O` [NITRIC ACID]: affinity was put at a Ki of 990 µM.
Molecule `I` [IODIDE] yielded a Ki of 33000 µM.
`Nc1ccc(S(N)(=O)=O)cc1I`: the Ki turned out to be 0.695 µM.
`NCc1ccc(S(N)(=O)=O)cc1` [MAFENIDE] came in with a Ki of 0.508 µM.
`O=NO` [NITROUS ACID] registered a Ki of 3150 µM.
The same measure, in the same setting: the value for `Cl` [HYDROCHLORIC ACID] was 530 µM; that for `NNc1ccccc1S(N)(=O)=O` was 0.65 µM.
`N#CO` [CYANATE] gave a Ki of 690 µM.
`NS(N)(=O)=O` [SULFAMIDE]: affinity was put at a Ki of 5.7e-06 µM.
For the molecule `F` [FLUORIDE ION], the Ki stood at 920 µM.
`S1SSSSSSS1` [SULFUR] showed a Ki of 3940 µM.
Molecule `O=S(O)O` [SULFUROUS ACID] had a Ki of 430 µM.
`Cc1ccc(-c2cc(C(F)(F)F)nn2-c2ccc(S(N)(=O)=O)cc2)cc1` [CELECOXIB]: the affinity, expressed as Ki, was 0.69 µM. This Ki is about 620-fold lower than that of the molecule before.
With `NS(=O)(=O)O` [SULFAMATE], the Ki was 8.5e-06 µM.
In turn, `Cc1ccc(S(N)(=O)=O)cc1` [P-TOLUENESULFONAMIDE] displayed a Ki of 0.516 µM.
`CCN[C@H]1CN(CCCOC)S(=O)(=O)c2sc(S(N)(=O)=O)cc21` [BRINZOLAMIDE]: the affinity, expressed as Ki, was 0.169 µM.
Molecule `NS(=O)(=O)c1ccc(S(=O)(=O)Nc2cccc3c(Cl)c[nH]c23)cc1` showed a Ki of 0.394 µM.
Regarding `NS(=O)(=O)c1nnc(NS(=O)(=O)c2ccccc2)s1` [BENZOLAMIDE], the Ki came to 0.214 µM.
Molecule `O=C1NS(=O)(=O)c2ccccc21` [SACCHARIN] yielded a Ki of 0.104 µM.
In turn, `Nc1ccc(S(N)(=O)=O)cc1Br` had a Ki of 0.54 µM.
In the case of `NCCc1ccc(S(N)(=O)=O)cc1`, the affinity corresponds to a Ki of 0.577 µM.

A further experiment addresses Carbonic anhydrase 6 (Homo sapiens, UniProt P23280).
Molecule `Br` [BROMIDE] returned a Ki of 730 µM.
`OB(O)c1ccccc1` [PHENYLBORONIC ACID] registered a Ki of 0.00082 µM.
`O=[N+]([O-])O` [NITRIC ACID] gave a Ki of 760 µM.
With `I` [IODIDE], the Ki was 810 µM.
Regarding `O=NO` [NITROUS ACID], the Ki came to 820 µM.
`Cl` [HYDROCHLORIC ACID]: the Ki amounted to 720 µM.
In the case of `N#CO` [CYANATE], the Ki was 690 µM.
Regarding `F` [FLUORIDE ION], the Ki was 600 µM.
Consider `S1SSSSSSS1` [SULFUR], for which the affinity corresponds to a Ki of 710 µM.
In turn, `O=S(O)O` [SULFUROUS ACID] registered a Ki of 14200 µM.
Turning to `O=C1NS(=O)(=O)c2ccccc21` [SACCHARIN], the affinity, expressed as Ki, was 0.935 µM. Against the preceding molecule, the Ki is about 15000-fold lower.

A further experiment addresses T2, Alpha carbonic anhydrase (Stylophora pistillata, UniProt B5SU02).
T2 sequence (B5SU02 whole entry): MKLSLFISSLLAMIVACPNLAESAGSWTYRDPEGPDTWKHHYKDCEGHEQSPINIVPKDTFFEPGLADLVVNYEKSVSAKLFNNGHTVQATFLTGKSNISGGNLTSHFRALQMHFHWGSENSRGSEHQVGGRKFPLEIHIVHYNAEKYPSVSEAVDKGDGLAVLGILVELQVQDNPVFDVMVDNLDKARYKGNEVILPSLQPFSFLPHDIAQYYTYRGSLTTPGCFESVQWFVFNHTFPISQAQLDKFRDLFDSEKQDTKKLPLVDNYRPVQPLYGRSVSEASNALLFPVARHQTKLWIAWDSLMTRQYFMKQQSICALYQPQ
As to `Br` [BROMIDE], the Ki worked out at 9.7 µM.
Regarding `OB(O)c1ccccc1` [PHENYLBORONIC ACID], affinity was put at a Ki of 0.00068 µM.
Turning to `O=[N+]([O-])O` [NITRIC ACID], the affinity, expressed as Ki, was 560 µM.
With `I` [IODIDE], the affinity corresponds to a Ki of 9 µM. This Ki is about 62-fold lower than that of the molecule before.
`O=NO` [NITROUS ACID] showed a Ki of 770 µM.
The same measure, in the same setting: to `Cl` [HYDROCHLORIC ACID] belongs 500 µM; to `N#CO` [CYANATE], 590 µM; to `F` [FLUORIDE ION], 620 µM.
Take `S1SSSSSSS1` [SULFUR]: the affinity, expressed as Ki, was 580 µM.
As for `O=S(O)O` [SULFUROUS ACID], the affinity, expressed as Ki, was 410 µM.
`NS(=O)(=O)O` [SULFAMATE] returned a Ki of 0.00081 µM.

The target in another experiment is Carbonic anhydrase 1 (Homo sapiens, UniProt P00915).
Carbonic anhydrase 1, sequence (P00915 whole entry): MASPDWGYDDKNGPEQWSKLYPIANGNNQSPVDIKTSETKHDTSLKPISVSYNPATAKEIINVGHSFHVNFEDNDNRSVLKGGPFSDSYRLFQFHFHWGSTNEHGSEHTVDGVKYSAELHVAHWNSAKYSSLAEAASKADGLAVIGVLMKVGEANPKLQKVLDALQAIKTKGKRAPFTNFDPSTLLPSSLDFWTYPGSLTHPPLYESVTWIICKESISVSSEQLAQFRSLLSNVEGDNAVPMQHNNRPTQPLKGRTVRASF
`OB(O)c1ccccc1` [PHENYLBORONIC ACID] returned a Ki of 58.6 nM.
Same read-out and setting: to `S1SSSSSSS1` [SULFUR] belongs 600 nM; to `NS(=O)(=O)O` [SULFAMATE], 0.021 nM.

One may read the Ki as the dissociation constant of the complex between target and ligand, obtained from inhibition or displacement. Low values mean tighter binding, high ones weaker binding.

For the origin of these results see ChEMBL document CHEMBL1641500, “Carbonic anhydrase inhibitors. Inhibition studies with anions and sulfonamides of a new cytosolic enzyme from the scleractinian coral Stylophora pistillata” (Bioorg Med Chem Lett, 2011).
